The values that follow come from ChEMBL document CHEMBL5316286, “Inhibition of the Ubiquitin Transfer Cascade by a Peptidomimetic Foldamer Mimicking the E2 N-Terminal Helix” (J Med Chem, 2023).

Active and inactive are the calls of the source. The rule behind the calls is not given here. *1 amine or outer side, *2 acyl side, *3 side chain or, on linkers, in order; H or OH if unused. Where a SMILES comes first, the peptide text is derived from it. [ ]: non-standard residue; d: D form. X1 = N=C(N)CCCC[C@H](N[*:1])C(=O)[*:2]

Series [1] has as its target T1, E3 ubiquitin-protein ligase CHIP (Homo sapiens) (UniProt Q9UNE7).
T1 sequence (whole entry): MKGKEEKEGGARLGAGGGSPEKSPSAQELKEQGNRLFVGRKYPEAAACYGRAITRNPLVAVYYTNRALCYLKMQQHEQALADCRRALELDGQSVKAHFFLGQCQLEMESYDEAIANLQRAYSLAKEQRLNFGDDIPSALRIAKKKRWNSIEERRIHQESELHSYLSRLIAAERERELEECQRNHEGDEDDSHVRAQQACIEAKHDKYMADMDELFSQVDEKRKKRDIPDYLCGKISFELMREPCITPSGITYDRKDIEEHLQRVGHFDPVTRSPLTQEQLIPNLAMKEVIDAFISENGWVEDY
The series is described as follows: Inhibition of N-terminal Flag-tagged full-length U-box E3 CHIP (unknown origin) self-ubiquitination expressed in Escherichia coli BL21 (DE3) cells assessed as decrease in polyubiquitination at 50 uM preincubated for 30 mins followed by ubiquitin addition measured after 1 hr by Western blot analysis. The note with it: time 90.0 min.

In series [2] the target is T1, E3 ubiquitin-protein ligase CHIP (Homo sapiens). The series is described as follows: Inhibition of N-terminal Flag-tagged full-length U-box E3 CHIP (unknown origin)-mediated CDK4 monoubiquitination expressed in Escherichia coli BL21 (DE3) cells upto 50 uM preincubated for 30 mins followed by ubiquitin addition measured after 1 hr by Western blot analysis. The note with it: time 90.0 min. (In western blotting, separated proteins are transferred to a membrane and probed.)

The target is the same in series [3]. Briefly: Inhibition of N-terminal Flag-tagged full-length U-box E3 CHIP (unknown origin) self-ubiquitination expressed in Escherichia coli BL21 (DE3) cells assessed as decrease in polyubiquitination at upto 50 uM preincubated for 30 mins followed by ubiquitin addition measured after 1 hr by Western blot analysis. The note with it: time 90.0 min.
The target is the same in series [4]. The series is described as follows: Inhibition of N-terminal Flag-tagged full-length U-box E3 CHIP (unknown origin) self-ubiquitination expressed in Escherichia coli BL21 (DE3) cells assessed as inhibition of Uba1-UbcH5B-CHIP cascade at upto 50 uM preincubated for 30 mins followed by ubiquitin addition measured after 1 hr by Western blot analysis. The note with it: time 90.0 min.

In series [5] the target is T2, Ubiquitin-like modifier-activating enzyme 1 (Homo sapiens) (UniProt P22314).
T2 sequence (whole entry): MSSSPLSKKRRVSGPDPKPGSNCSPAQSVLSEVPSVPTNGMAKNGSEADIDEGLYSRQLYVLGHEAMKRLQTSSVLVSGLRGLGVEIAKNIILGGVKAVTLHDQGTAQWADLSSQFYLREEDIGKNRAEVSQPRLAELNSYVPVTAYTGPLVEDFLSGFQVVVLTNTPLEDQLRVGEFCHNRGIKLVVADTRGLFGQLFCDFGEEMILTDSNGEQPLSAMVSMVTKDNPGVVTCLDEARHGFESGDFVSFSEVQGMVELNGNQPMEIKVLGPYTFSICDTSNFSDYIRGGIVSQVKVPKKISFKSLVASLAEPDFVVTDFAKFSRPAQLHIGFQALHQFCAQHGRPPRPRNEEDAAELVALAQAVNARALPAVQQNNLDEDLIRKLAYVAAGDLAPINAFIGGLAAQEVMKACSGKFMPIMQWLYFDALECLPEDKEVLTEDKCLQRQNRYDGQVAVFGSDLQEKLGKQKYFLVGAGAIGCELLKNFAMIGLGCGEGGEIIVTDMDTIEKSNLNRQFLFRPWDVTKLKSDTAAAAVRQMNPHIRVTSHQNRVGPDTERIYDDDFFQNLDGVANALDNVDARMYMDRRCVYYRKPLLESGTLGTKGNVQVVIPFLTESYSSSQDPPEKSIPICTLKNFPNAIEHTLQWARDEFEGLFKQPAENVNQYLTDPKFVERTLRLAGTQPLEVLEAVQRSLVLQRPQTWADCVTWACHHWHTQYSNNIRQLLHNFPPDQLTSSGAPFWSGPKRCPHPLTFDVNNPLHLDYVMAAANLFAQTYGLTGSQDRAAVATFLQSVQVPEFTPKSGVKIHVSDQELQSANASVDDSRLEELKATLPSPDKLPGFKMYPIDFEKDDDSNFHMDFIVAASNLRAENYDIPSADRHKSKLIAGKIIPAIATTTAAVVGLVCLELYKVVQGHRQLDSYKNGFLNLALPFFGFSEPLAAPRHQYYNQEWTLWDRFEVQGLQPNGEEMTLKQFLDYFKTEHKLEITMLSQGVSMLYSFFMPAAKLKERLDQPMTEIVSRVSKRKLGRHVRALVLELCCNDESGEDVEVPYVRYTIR
Briefly: Binding affinity to His-tagged Uba1 (unknown origin)-coated Ni-NTA beads assessed as measuring green fluorescence at 10 uM incubated for 30 mins by laser scanning microscopy.

Series [6] is described as follows: Aggregation propensity of the compound in D2O assessed as signal shift at 1 mM measured for 24 hrs by 1H-NMR analysis. The series is classed as physicochemical. As to conditions: 1000 µM.
The species named for series [7] is Homo sapiens. Briefly: Disruption of Uba1/UbcH5B (unknown origin) interaction assessed as inhibition of UbcH5B-ubiquitin conjugate formation at 50 uM preincubated for 30 mins followed by ubiquitin addition measured after 30 mins by Western blot analysis.
The subject of series [8] is HEK293. The series is described as follows: Cytotoxicity against HEK293 cells assessed as cell membrane disruption upto 100 uM incubated for 24 hrs by DAPI/PI staining based confocal microscopy. The series is classed as toxicity. The note with it: human, hek293, 24 h.
Series [9] concerns the target T1, E3 ubiquitin-protein ligase CHIP (Homo sapiens). Briefly: Inhibition of CHIP-mediated CDK4 ubiquitination in HEK293T cells upto 50 uM preincubated for 14 hrs followed by MG132 addition measured after 12 hrs by Western blot analysis. The series is classed as cell-based. As to conditions: time 26.0 hrs.
A short description of series [10]: Stability of compound in ammonium bicarbonate buffer at pH 7.8 at 0.1 mg/ml incubated for 24 hrs by HPLC/MS analysis. The series is classed as physicochemical. The note with it: pH 7.8, 24 h.
Series [11] is described as follows: Stability of compound in human serum at 1 mg incubated for 24 hrs by HPLC analysis. The series is classed as ADME, cell-free.
Series [12] has as its system Erythrocyte. The series is described as follows: Hemolytic activity in human RBC assessed as cell membrane disruption upto 400 uM incubated for 1 hr by microplate reader analysis. The series is classed as toxicity, cell-based.
In series [13] the target is T1, E3 ubiquitin-protein ligase CHIP (Homo sapiens). The series is described as follows: Inhibition of CHIP (unknown origin) self-ubiquitination upto 50 uM in presence of ubiquitin-preloaded UbcH5B by Western blot analysis.
Series [14] is described as follows: Aggregation propensity of the compound in D2O assessed as signal shift at 1 mM measured after 10 days by 1H-NMR analysis. The series is classed as physicochemical. As to conditions: 240 h, 1000 µM, time 10 day.
Series [15] has as its target Cyclin-dependent kinase 4 (Homo sapiens) (UniProt P11802). Briefly: Inhibition of CDK4 ubiquitination in HEK293 cells overexpressing CHIP upto 50 uM by Western blot analysis. The series is classed as cell-based.

Cyclin-dependent kinase 4 (Homo sapiens), sequence (P11802 whole entry): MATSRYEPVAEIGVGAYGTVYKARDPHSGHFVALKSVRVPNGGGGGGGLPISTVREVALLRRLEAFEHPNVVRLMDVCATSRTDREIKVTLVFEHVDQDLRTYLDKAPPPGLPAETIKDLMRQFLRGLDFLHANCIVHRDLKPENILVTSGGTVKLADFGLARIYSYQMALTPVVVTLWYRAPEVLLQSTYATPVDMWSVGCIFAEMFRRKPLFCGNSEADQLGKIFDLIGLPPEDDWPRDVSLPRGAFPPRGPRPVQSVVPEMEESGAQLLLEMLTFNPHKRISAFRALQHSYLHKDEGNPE

For `COc1ccc(S(=O)(=O)N(CC(=O)N[C@H](CCCCN)CN(CC(=O)N[C@H](CCCCN)CN(CC(=O)N[C@H](CC(C)C)CN(CC(=O)N[C@H](CCCCN)CN(CC(=O)N[C@@H]2CCCCNC(=O)c3ccc(cc3)C(=O)NCCCC[C@H](CN(CC(N)=O)S(C)(=O)=O)NC(=O)CN(S(C)(=O)=O)C[C@@H](CCCCN)NC(=O)CN(S(C)(=O)=O)C2)S(C)(=O)=O)S(=O)(=O)CCN)S(=O)(=O)CCN)S(C)(=O)=O)C[C@@H](CCCCN)NC(C)=O)cc1`, the inhibition entry in series [1] is “Active”. In addition, in [2], the inhibition result was “inactive”.
On to `CC(=O)N[C@H](CO)CN(CC(=O)N[C@H](C)CN(CC(=O)N[C@H](CCCCN)CN(CC(=O)N[C@@H]1CCCCNC(=O)c2ccc(cc2)C(=O)NCCCC[C@H](CN(CC(=O)N[C@H](CCC(=O)O)CN(CC(=O)N[C@H](CCCCN)CN(CC(N)=O)S(=O)(=O)CCN)S(=O)(=O)CC(C)C)S(C)(=O)=O)NC(=O)CN(S(C)(=O)=O)C[C@@H](CCCCN)NC(=O)CN(S(C)(=O)=O)C1)S(=O)(=O)CCN)S(=O)(=O)CC(C)C)S(=O)(=O)CC(C)C`, for which the inhibition result in series [3] and in series [2] was “inactive” in each case.
Take `CC(=O)N[C@H](CO)CN(CC(=O)N[C@H](C)CN(CC(=O)N[C@H](CCCCN)CN(CC(=O)N[C@H](CC(C)C)CN(CC(=O)N[C@H](CCCCN)CN(CC(=O)N[C@@H]1CCCCNC(=O)c2ccc(cc2)C(=O)NCCCC[C@H](CN(CC(N)=O)S(C)(=O)=O)NC(=O)CN(S(=O)(=O)CC(C)C)C[C@@H](CCC(=O)O)NC(=O)CN(S(C)(=O)=O)C1)S(C)(=O)=O)S(=O)(=O)CCN)S(=O)(=O)CCN)S(=O)(=O)CC(C)C)S(=O)(=O)CC(C)C`: the inhibition entry in series [3] and in [2] was “inactive” each time.
Turning to `COc1ccc(S(=O)(=O)N(CC(=O)N[C@@H](CCCCN)CN(CC(=O)N[C@@H](CCCCN)CN(CC(=O)N[C@@H](CC(C)C)CN(CC(=O)N[C@@H](CCCCN)CN(CC(=O)N[C@@H](CC(C)C)CN(CC(=O)N[C@@H](CCCCN)CN(CC(=O)N[C@@H](CC(C)C)CN(CC(N)=O)S(=O)(=O)CCN)S(C)(=O)=O)S(=O)(=O)CC(C)C)S(C)(=O)=O)S(=O)(=O)CCN)S(=O)(=O)CCN)S(C)(=O)=O)C[C@H](CCCCN)NC(C)=O)cc1`, the inhibition result in series [4] was “inactive”. In addition, the result in series [5] was inactive.
Consider `CC(=O)N[C@H](CO)CN(CC(=O)N[C@H](C)CN(CC(=O)N[C@H](CCCCN)CN(CC(=O)N[C@H](CC(C)C)CN(CC(=O)N[C@H](CCCCN)CN(CC(=O)N[C@H](CC(C)C)CN(CC(=O)N[C@H](CCC(=O)O)CN(CC(=O)N[C@H](CCCCN)CN(CC(N)=O)S(=O)(=O)CCN)S(=O)(=O)CC(C)C)S(=O)(=O)CCN)S(C)(=O)=O)S(=O)(=O)CCN)S(=O)(=O)CCN)S(=O)(=O)CC(C)C)S(=O)(=O)CC(C)C`, for which the inhibition result in series [4] is “inactive”.
As for `CC(=O)N[C@H](CO)CN(CC(=O)N[C@@H]1CCCCNC(=O)c2ccc(cc2)C(=O)NCCCC[C@H](CN(CC(=O)N[C@H](CCCCN)CN(CC(=O)N[C@H](CC(C)C)CN(CC(=O)N[C@H](CCC(=O)O)CN(CC(=O)N[C@H](CCCCN)CN(CC(N)=O)S(=O)(=O)CCN)S(=O)(=O)CC(C)C)S(=O)(=O)CCN)S(C)(=O)=O)S(C)(=O)=O)NC(=O)CN(S(=O)(=O)CCN)C[C@@H](CCCCN)NC(=O)CN(S(C)(=O)=O)C1)S(=O)(=O)CC(C)C`, the inhibition result in series [3] and in series [2] was “inactive” throughout.
In the case of `COc1ccc(S(=O)(=O)N(CC(=O)N[C@@H]2CCCCNC(=O)c3ccc(cc3)C(=O)NCCCC[C@H](CN(CC(=O)N[C@H](CCCCN)CN(CC(=O)N[C@H](CC(C)C)CN(CC(=O)N[C@H](CCCCN)CN(CC(=O)N[C@H](CC(C)C)CN(CC(N)=O)S(=O)(=O)CCN)S(C)(=O)=O)S(=O)(=O)CC(C)C)S(C)(=O)=O)S(C)(=O)=O)NC(=O)CN(S(=O)(=O)CCN)C[C@@H](CCCCN)NC(=O)CN(S(C)(=O)=O)C2)C[C@@H](CCCCN)NC(C)=O)cc1`, the Activity entry in series [6] is on record as “Not Active”; in series [8], “Non-Toxic”; in series [12], “Non-Toxic”; in series [14], “Active”. Also, the inhibition result in series [7], in series [1], in series [9], in series [2] and in series [15] was “Active” each time. Further, the Stability entry in series [10] and in series [11] was “Stable” each time. For the same molecule, in series [13], the inhibition entry was “inactive”.
As to `CC[C@H](C)[C@H](NC(=O)[C@H](CCC(=O)O)NC(=O)[C@H](CCCCN)NC(=O)[C@H](CCSC)NC(=O)[C@@H](NC(=O)[C@H](CCCNC(=N)N)NC(=O)[C@H](CCCCN)NC(=O)[C@H](C)NC(=O)[C@H](CCCCC(=N)N)NC(=O)[C@H](CO)NC(=O)[C@H](CO)NC(C)=O)[C@@H](C)CC)C(=O)N[C@@H](CCC(N)=O)C(=O)N[C@@H](C)C(=O)N[C@H](C(=O)N[C@@H](CCCCN)C(=O)N[C@@H](CC(=O)O)C(N)=O)C(C)C` (Ac-SS[X1]AKRIMKEIQAVKD-NH2), the Stability entry in series [10] and in series [11] was “Stable” throughout.
